# Source: publication PMC8126888 (RSC Medicinal Chemistry, 2020)
# Where two headings read alike, the source gives them in different places.
# Key:
# [1] = test system: primary peritoneal mouse macrophages (PMM); experiment: cells; conditions: Macrophage, read-out: PMM IC50
# in vitro [2] = conditions: human, microsomes, pH 7.4, HLM CLint, human liver microsomes
# in vitro [3] = conditions: mouse, microsomes, pH 7.4, MLM CLint, mouse liver microsomes
# physchem = conditions: HPLC, Ascentis Express RP Amide column, pH 7.4, eLogD, experimental
# in vitro [4] = conditions: human, THP-1 cells differentiated with PMA
# in vitro [5] = conditions: human
# in vitro [6] = conditions: human, HFF-1 cells
# in vitro [7] = conditions: human, HepG2 cells
# in vitro [8] = conditions: PAMPA
# [9] = test system: Leishmania infantum MHOM/MA(BE)/67/ITMAP263 intracellular amastigotes; experiment: microbe, parasite or virus in culture; conditions: Macrophage, in Mus musculus
# [10] = test system: Leishmania infantum (MHOM/MA/67/ITMAP-263) intracellular amastigotes in THP-1; experiment: microbe, parasite or virus in culture; conditions: THP-1, read-out: L. infantum MHOM/MA/67/ITMAP263 intracellular amastigotes THP-1 cells IC50
# [11] = test system: Trypanosoma cruzi, Tulahuen CL2, beta-galactosidase strain; experiment: microbe, parasite or virus in culture; conditions: MRC5, read-out: T. cruzi Tulahuen C4 (LacZ) IC50
# in vitro [12] = conditions: human, HFF-1 cells; remark: listed apart in the source
# in vitro [13] = conditions: human, HepG2 cells; remark: listed apart in the source
# in vitro [14] = conditions: PAMPA; remark: listed apart in the source
# [15] = test system: L. infantum MHOM/MA/67/ITMAP263 axenic Promastigotes; experiment: microbe, parasite or virus in culture; conditions: Leishmania infantum, read-out: L. infantum MHOM/MA/67/ITMAP263 axenic Promastigotes IC50
# in vitro [16] = conditions: human, HepG2 cells; remark: listed apart in the source
# [17] = test system: L. donovani MHOM/ET/67/L82 intracellular amastigotes; experiment: microbe, parasite or virus in culture; conditions: Leishmania donovani, read-out: L. donovani MHOM/ET/67/L82 intracellular amastigotes IC50
# [18] = test system: axenic L. don. amastigotes (MHOM/SD/62/1S-CL2, LdBOB); experiment: microbe, parasite or virus in culture; conditions: Leishmania donovani, read-out: L. donovani MHOM/SD/62/1SCL2D axenic-cidal amastigotes IC50
# [19] = test system: L. donovani MHOM/SD/62/1SCL2D intracellular amastigotes; experiment: microbe, parasite or virus in culture; conditions: Leishmania donovani, read-out: L. donovani MHOM/SD/62/1SCL2D intracellular amastigotes IC50
# [20] = read-out: L. Inf. pIC50, L. infantum intracellular amastigotes (converted)
# [21] = read-out: L. infantum MHOM/MA(BE)/67/ITMAP263 intracellular amastigotes IC50, intracellular amastigotes
# [22] = read-out: L. Inf. pIC50, from L. infantum intracellular amastigote IC50 (converted)
Structure (SMILES),IC50 [1] [µM],microsomal CLint at 0.5 μM (in vitro [2]) [µL/min/mg],microsomal CLint at 0.5 μM (in vitro [3]) [µL/min/mg],chromatographic logD (physchem),CC50 at 120 h (in vitro [4]) [µM],CC50 at 3 days (in vitro [5]) [µM],CC50 (in vitro [6]) [µM],CC50 (in vitro [7]) [µM],Papp (in vitro [8]) [×10⁻⁶ cm/s],"IC50 [9, 20] [µM]","IC50 [9, 21] [µM]",IC50 [10] [µM],IC50 [11] [µM],CC50 (in vitro [12]) [µM],CC50 (in vitro [13]) [µM],Papp (in vitro [14]) [×10⁻⁶ cm/s],"IC50 [9, 22] [µM]",IC50 [15] [µM],further results
COCCN(Cc1ccccc1)S(=O)(=O)c1c(OC)ccc(Cl)c1[S+](C)[O-] (centres unmarked) [DNDI0003578380],> 64,85,286,2.9,> 64,> 64,> 64,> 64,17.6,26.9,26.7,> 64,> 64,,,,,,
COc1ccc(OC)c(S(=O)(=O)N(Cc2ccc(F)cc2)c2ccc(F)cn2)c1 [DNDI0003370085],> 64,230,1990,3.5,,> 64,,,,,41.9,,5.17,15,16.4,7.1,41.7,33,
CCCN(Cc1ccc(F)cc1)S(=O)(=O)c1cc([S+](C)[O-])ccc1OC (centres unmarked) [DNDI0003578384],> 64,67,437,3.1,> 64,> 64,> 64,> 64,18.6,11,11,> 64,38.5,,,,,,
C[S+]([O-])c1c(Cl)ccc2c1S(=O)(=O)N(Cc1ccccc1)CCO2 (centres unmarked) [DNDI0003578383],> 64,33,423,3,> 64,> 64,> 64,> 64,22,47.9,47.9,> 64,29.3,,,,,,
COc1ccc(Cl)cc1S(=O)(=O)N(Cc1ccccc1)C(Cc1ccccc1)C(N)=O (centres unmarked) [DNDI0003370116],32,752,801,4.2,,9.62,,,,,4.73,,5.3,37.5,39,5.17,4.68,30.4,
CCCCOc1cc(C)c(Cl)cc1S(=O)(=O)NCc1cccs1 [DNDI0002620367],> 32,,,,> 50,4.56,,,,,,,,,,,,,CC50 (in vitro [16]): > 50 µM; IC50 ([9]; read-out: L. Inf. pIC50 (converted)): 0.794 µM; IC50 ([9]; read-out: L. infantum MHOM/MA(BE)/67/ITMAP263 intracellular amastigotes IC50): 0.79 µM; IC50 [17]: 5.38 µM; IC50 [18]: 11 µM; IC50 [19]: 22 µM
COc1ccc(CN2CCCC2)cc1S(=O)(=O)N(Cc1ccc(F)cc1)Cc1ccc(F)cc1 [DNDI0003370114],8,62,144,4.4,,6.87,,,,,2.92,,3.27,13.8,3.25,0.64,2.95,0.72,
COc1ccc(S(N)(=O)=O)cc1S(=O)(=O)N(Cc1ccccc1)Cc1ccccc1 [DNDI0003578385],> 64,58,366,3.5,> 64,13.3,22.2,> 64,3.76,0.562,0.56,5.75,4.66,,,,,,
O=S1(=O)c2ccccc2[C@H](O)[C@@H](Cc2ccccc2)N1Cc1ccccc1 [DNDI0003578378],> 64,,,4.2,39.7,> 64,> 64,63.9,,8.91,8.88,19.5,7.67,,,,,,
COCCN(Cc1ccccc1)S(=O)(=O)c1c(OC)ccc(Cl)c1S(C)(=O)=O [DNDI0003578381],> 64,51,176,2.6,> 64,> 64,> 64,> 64,14.6,51.3,50.8,> 64,> 64,,,,,,
COc1ccc(OC)c(S(=O)(=O)N(Cc2ncccn2)Cc2ncccn2)c1 [DNDI0003370115],> 64,17,67,1.3,,> 64,,,,,> 64,,61.4,> 64,> 64,25.1,> 64,> 64,
O=S1(=O)c2ccccc2[C@H](O)[C@H](Cc2ccccc2)N1Cc1ccccc1 [DNDI0003578379],> 64,,,3.9,39.4,29.7,27,> 64,,13.5,13.5,12.1,6.7,,,,,,
COc1ccc([S+](C)[O-])cc1S(=O)(=O)N(Cc1ccccc1)Cc1ccccc1 (centres unmarked) [DNDI0003578382],> 64,125,397,3.6,> 64,21.3,> 64,> 64,14,0.589,0.59,11.5,16.9,,,,,,
